Measured values: patent US20110263593A1, “NOVEL IMIDAZO[1,2-a]PYRIMIDINE DERIVATIVES, METHOD FOR THE PREPARATION THEREOF, USE THEREOF AS MEDICAMENTS, PHARMACEUTICAL COMPOSITIONS AND NOVEL USE, IN PARTICULAR AS MET INHIBITORS” (sanofi-aventis, priority 2008, published 2011)
pIC50: −log10 of the molar value. Structures can show the parent of a compound that is named as a salt.

Experiments:
[1] = test system: HCT116 cells and MKN45 cells; test: Test C: measurement of cell proliferation by 14C-thymidine pulse; type: cell-based; settings: 14C-thymidine incorporation, 96 h of treatment; cell line not stated (HCT116 and MKN45 in method)
Method: C) Test C: Measurement of cell proliferation by ^14C-thymidine pulse
The cells are seeded into Cytostar 96-well plates in 180 μl for 4 hours at 37° C. and 5% CO2: HCT116 cells at a rate of 2500 cells per well in DMEM medium+10% foetal calf serum+1% L-glutamine and MKN45 cells at a rate of 7500 cells per well in RPMI medium+10% foetal calf serum+1% L-glutamine. After these 4 hours of incubation, the products are added in 10 μl as a 20-fold concentrated solution according to the dilution method mentioned for the ELISA. The products are tested at 10 concentrations in duplicate from 10 000 nM to 0.3 nM with an increment of 3.
After treatment for 72 h, add 10 μl of ^14C-thymidine at 10 μCi/ml to obtain 0.1 μCi per well. The ^14C-thymidine incorporation is measured on a Micro-Beta machine (Perkin-Elmer) after 24 hours of pulse and 96 h of treatment.
All the stages of the assay are automated on BIOMEK 2000 or TECAN stations.

[2] = biological target: T1, MET (Homo sapiens, UniProt P08581); test: Test A: HTRF MET assay in 96-well format; type: biochemical; set-up: The His-Tev-MET (956-1390) recombinant DNA in pFastBac (Invitrogen) is transfected into insect cells; His (N, cleaved yes); Tev cleavage site (N, cleaved yes); made in house; host or cells: SF21 insect cells (baculovirus, pFastBac); settings: 5 nM MET, 10 μM ATP
Method: I) Expression and Purification of MET, Cytoplasmic Domain
The His-Tev-MET (956-1390) recombinant DNA in pFastBac (Invitrogen) is transfected into insect cells and, after several viral amplification stages, the final baculovirus stock is tested for the expression of the protein of interest.
After infection for 72 h at 27° C. with the recombinant virus, the SF21 cell cultures are harvested by centrifugation and the cell pellets are stored at −80° C.
The cell pellets are resuspended in lysis buffer (buffer A [50 mM HEPES, pH 7.5, 250 mM NaCl, 10% glycerol, 1 mM TECP]; + cocktail of protease inhibitors, Roche Diagnostics, without EDTA, ref. 1873580), stirred at 4° C. until the mixture is homogeneous and then lysed mechanically using a “Dounce” type apparatus.
After centrifugation, the lysis supernatant is incubated for 2 h at 4° C. with nickel chelate resin (His-Trap 6 Fast Flow™, GE HealthCare). After washing with 20 volumes of buffer A, the suspension is packed into a column, and the proteins are eluted with a gradient of buffer B (buffer A+290 mM imidazole).
The fractions comprising the protein of interest for the purpose of electrophoretic analysis (SDS PAGE) are combined, concentrated by ultrafiltration (10 kDa cut-off) and injected onto an exclusion chromatography column (Superdex™ 200, GE HealthCare) equilibrated in buffer A.
After enzymatic cleavage of the histidine tag, the protein is reinjected onto a new IMAC nickel chelate chromatography column (His-Trap 6 Fast Flow™, GE HealthCare) equilibrated in buffer A. The fractions eluted with a gradient of buffer B and comprising the protein of interest after electrophoresis (SDS PAGE) are finally combined and conserved at −80° C.
For the production of autophosphorylated protein, the previous fractions are incubated for 1 h at ambient temperature after the addition of 2 mM ATP, 2 mM MgCl2, and 4 mM Na3VO4. After the reaction has been stopped with 5 mM of EDTA, the reaction mixture is injected onto a HiPrep desalifying column (GE HealthCare) preequilibrated in buffer A+4 mM Na3VO4, and the fractions comprising the protein of interest (SDS PAGE analysis) are combined and stored at −80° C. The degree of phosphorylation is verified by mass spectrometry (LC-MS) and by peptide mapping.
A) Test A: HTRF MET Assay in 96-Well Format
MET at a final concentration of 5 nM is incubated in a final volume of 50 μl of enzymatic reaction in the presence of the test molecule (for a final concentration range of from 0.17 nM to 10 μM, 3% DMSO final concentration) in 10 mM MOPS buffer, pH 7.4, 1 mM DTT, 0.01% Tween 20. The reaction is initiated with the substrate solution to obtain final concentrations of 1 μg/ml poly-(GAT), 10 μM ATP and 5 mM MgCl2. After incubation for 10 min at ambient temperature, the reaction is stopped with a 30 μl mix so as to obtain a final solution of 50 mM Hepes, pH 7.5, 500 mM potassium fluoride, 0.1% BSA and 133 mM EDTA in the presence of 80 ng of streptavidin 61SAXLB Cis-Bio Int. and 18 ng of anti-phosphotyrosine Mab PT66-Europium Cryptate per well. After incubation for 2 hours at ambient temperature, the reading is taken at 2 wavelengths, 620 nm and 665 nm, on a reader for the TRACE/HTRF technique and the % inhibition is calculated from the 665/620 ratios.
Target sequence in this assay (P08581 956-1390): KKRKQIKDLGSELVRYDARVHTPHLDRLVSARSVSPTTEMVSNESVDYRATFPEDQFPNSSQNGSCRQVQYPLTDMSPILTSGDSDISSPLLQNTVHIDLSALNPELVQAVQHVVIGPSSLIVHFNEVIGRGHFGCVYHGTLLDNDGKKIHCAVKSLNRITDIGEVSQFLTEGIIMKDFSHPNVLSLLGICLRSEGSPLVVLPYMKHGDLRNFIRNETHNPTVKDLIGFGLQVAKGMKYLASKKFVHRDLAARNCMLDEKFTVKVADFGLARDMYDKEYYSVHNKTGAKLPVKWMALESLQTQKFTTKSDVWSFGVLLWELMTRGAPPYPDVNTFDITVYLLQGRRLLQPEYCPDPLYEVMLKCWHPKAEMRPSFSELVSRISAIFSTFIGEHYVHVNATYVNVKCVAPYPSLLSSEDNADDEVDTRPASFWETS

[3] = biological target: T1, MET; test: Test B: inhibition of the autophosphorylation of MET, ELISA technique (pppY1230, 1234, 1235) in MKN45 cells; type: cell-based; set-up: endogenous in cells; host or cells: MKN45 cells; settings: 1 h treatment, phosphoMET ELISA
Method: B) Test B: Inhibition of the Autophosphorylation of MET; ELISA Technique (pppY1230, 1234, 1235)
a) Cell lysates: Seed MKN45 cells into 96-well plates (Cell coat BD polylysine) at 20 000 cells/well in 200 μl in RPMI medium+10% FCS+1% L-glutamine. Leave to adhere for 24 hours in an incubator.
The cells are treated the day after seeding with the products at 6 concentrations in duplicate for 1 h. At least 3 control wells are treated with the same final amount of DMSO.
Product dilution: Stock at 10 mM in pure DMSO—range from 10 mM to 30 μM with an increment of 3 in pure DMSO—intermediate 1/50 dilutions in culture medium and then removal of 10 μl added directly to the cells (200 μl): final range from 10 000 to 30 nM.
At the end of the incubation, carefully remove the supernatant and rinse with 200 μl of PBS. Next, place 100 μl of lysis buffer directly in the wells on ice and incubate at 4° C. for 30 minutes. Lysis buffer: 10 mM Tris HCl, pH 7.4, 100 mM NaCl, 1 mM EDTA, 1 mM EGTA, 1% Triton X-100, 10% glycerol, 0.1% SDS, 0.5% deoxycholate, 20 mM NaF, 2 mM Na3VO4, 1 mM PMSF and cocktail of antiproteases.
The 100 μl of lysates are transferred into a V-bottomed polypropylene plate and the ELISA is performed immediately, or the plate is frozen at −80° C.
b) PhosphoMET ELISA BioSource Kit KH00281
Into each well of the kit plate, add 70 μl of kit dilution buffer+30 μl of cell lysate or 30 μl of lysis buffer for the blanks. Incubate for 2 h with gentle agitation at ambient temperature.
Rinse the wells 4 times with 400 μl of kit washing buffer. Incubate with 100 μl of anti-phospho MET antibody for 1 hour at ambient temperature.
Rinse the wells 4 times with 400 μl of kit washing buffer. Incubate with 100 μl of anti-rabbit HRP antibody for 30 minutes at ambient temperature (except for the wells of chromogen alone).
Rinse the wells 4 times with 400 μl of kit washing buffer. Introduce 100 μl of chromogen and incubate for 30 minutes in the dark at ambient temperature.
Stop the reaction with 100 μl of stop solution. Read without delay at […], 0.1 second on Wallac Victor plate reader.
Target sequence in this assay (P08581 25-1390): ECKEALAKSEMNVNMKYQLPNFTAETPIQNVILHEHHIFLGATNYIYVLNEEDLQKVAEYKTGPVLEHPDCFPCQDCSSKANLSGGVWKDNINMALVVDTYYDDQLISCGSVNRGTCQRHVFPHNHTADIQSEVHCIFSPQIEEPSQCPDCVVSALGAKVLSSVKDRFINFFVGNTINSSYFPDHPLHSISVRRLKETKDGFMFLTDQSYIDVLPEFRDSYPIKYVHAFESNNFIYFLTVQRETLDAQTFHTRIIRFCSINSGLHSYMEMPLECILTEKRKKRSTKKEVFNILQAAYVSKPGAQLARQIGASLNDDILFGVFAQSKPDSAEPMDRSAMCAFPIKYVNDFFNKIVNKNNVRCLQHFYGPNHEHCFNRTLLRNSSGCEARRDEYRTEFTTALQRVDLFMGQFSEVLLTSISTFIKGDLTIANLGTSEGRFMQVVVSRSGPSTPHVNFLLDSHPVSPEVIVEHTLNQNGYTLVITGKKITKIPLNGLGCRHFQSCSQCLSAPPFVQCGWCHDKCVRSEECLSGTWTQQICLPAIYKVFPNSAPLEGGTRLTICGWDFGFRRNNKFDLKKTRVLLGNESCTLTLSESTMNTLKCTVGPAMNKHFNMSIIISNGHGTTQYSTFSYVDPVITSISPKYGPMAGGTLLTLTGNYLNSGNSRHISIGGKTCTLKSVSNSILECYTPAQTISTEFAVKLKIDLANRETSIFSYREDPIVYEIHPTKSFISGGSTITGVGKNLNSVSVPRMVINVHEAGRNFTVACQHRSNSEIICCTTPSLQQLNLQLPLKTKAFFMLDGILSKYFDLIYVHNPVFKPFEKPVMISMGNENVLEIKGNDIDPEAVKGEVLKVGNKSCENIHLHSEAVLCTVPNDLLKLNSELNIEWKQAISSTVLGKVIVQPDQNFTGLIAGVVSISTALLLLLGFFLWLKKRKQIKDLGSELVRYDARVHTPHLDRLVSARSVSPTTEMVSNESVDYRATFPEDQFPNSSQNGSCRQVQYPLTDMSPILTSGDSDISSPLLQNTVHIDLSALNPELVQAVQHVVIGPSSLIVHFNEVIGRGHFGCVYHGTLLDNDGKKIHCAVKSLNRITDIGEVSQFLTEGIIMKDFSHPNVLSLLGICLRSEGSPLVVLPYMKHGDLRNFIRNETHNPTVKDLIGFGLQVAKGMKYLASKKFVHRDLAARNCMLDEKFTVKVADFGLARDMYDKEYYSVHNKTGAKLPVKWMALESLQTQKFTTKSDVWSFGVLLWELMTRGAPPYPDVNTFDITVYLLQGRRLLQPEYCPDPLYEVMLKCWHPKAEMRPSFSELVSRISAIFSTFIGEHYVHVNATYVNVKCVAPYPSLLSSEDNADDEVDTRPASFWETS

pIC50 [1]	pIC50 [2]	pIC50 [3]	melting point	Compound
> 6.00	> 6.30			NCC(=O)Nc1nc2ccc(Sc3cnc4ncccn34)cc2s1 [Example 12, N-[6-(imidazo[1,2-a]pyrimidin-3-ylsulphanyl)-1,3-benzothiazol-2-yl]glycinamide dihydrochloride]
> 6.00	> 7.00	> 7.00	210 °C	CCN1CCN(CC(=O)Nc2nc3ccc(Sc4cnc5ncccn45)cc3s2)CC1 [Example 15, 2-(4-ethylpiperazin-1-yl)-N-[6-(imidazo[1,2-a]pyrimidin-3-ylsulphanyl)-1,3-benzothiazol-2-yl]acetamide]
> 6.00	> 6.30		> 260 °C	O=C(Nc1nc2ccc(Sc3cnc4ncccn34)cc2s1)c1ccccc1 [Example 9, N-[6-(imidazo[1,2-a]pyrimidin-3-ylsulphanyl)-1,3-benzothiazol-2-yl]benzamide]
> 6.00	> 7.00	> 7.00		O=C(Nc1nc2ccc(Sc3cnc4ncc(OC5CCCCC5)cn34)cc2s1)C1CC1 [Example 24, N-(6-{[6-(cyclohexyloxy)imidazo[1,2-a]pyrimidin-3-yl]sulphanyl}-1,3-benzothiazol-2-yl)cyclopropanecarboxamide]
> 6.00	> 7.00	> 7.00		Nc1nc2ccc(Sc3cnc4ncc(NC5CCCCC5)cn34)cc2s1 [Example 25, 3-[(2-amino-1,3-benzothiazol-6-yl)sulphanyl]-N-cyclohexylimidazo[1,2-a]pyrimidin-6-amine]
> 6.00	> 6.30		> 260 °C	O=C(Nc1nc2ccc([S+]([O-])c3cnc4ncccn34)cc2s1)C1CC1 (centres unmarked) [Example 6, N-[6-(imidazo[1,2-a]pyrimidin-3-ylsulphinyl)-1,3-benzothiazol-2-yl]cyclopropanecarboxamide]
> 6.00	> 7.00	> 7.00		O=C(Nc1nc2ccc(Sc3cnc4ncc(-c5cccc(F)c5)cn34)cc2s1)C1CC1 [Example 23, N-(6-{[6-(3-fluorophenyl)imidazo[1,2-a]pyrimidin-3-yl]sulphanyl}-1,3-benzothiazol-2-yl)cyclopropanecarboxamide]

Second part, the compound before the results:

Compound	pIC50 [1]	pIC50 [2]	pIC50 [3]	melting point
O=C(Nc1nc2ccc(Sc3cnc4ncccn34)cc2s1)C1CC1 [Example 2, N-[6-(imidazo[1,2-a]pyrimidin-3-ylsulphanyl)-1,3-benzothiazol-2-yl]cyclopropanecarboxamide]	> 6.00	> 7.00	> 7.00	258 °C
O=C(NCCN1CCOCC1)Nc1nc2ccc(Sc3cnc4ncccn34)cc2s1 [Example 4, 1-[6-(imidazo[1,2-a]pyrimidin-3-ylsulphanyl)-1,3-benzothiazol-2-yl]-3-[2-(morpholin-4-yl)ethyl]urea]	> 6.00	> 7.00	> 7.00	> 260 °C
O=C(Nc1nc2ccc(Sc3cnc4ncccn34)cc2s1)C1CC1CN1CCOCC1 (stereo not drawn) [Example 13, (trans-A)-N-[6-(imidazo[1,2-a]pyrimidin-3-ylsulphanyl)-1,3-benzothiazol-2-yl]-2-(morpholin-4-ylmethyl)cyclopropanecarboxamide]	> 6.00	> 7.00	> 7.00	
Nc1ccn2c(Sc3ccc4nc(NC(=O)C5CC5)sc4c3)cnc2n1 [Example 22, N-{6-[(7-aminoimidazo[1,2-a]pyrimidin-3-yl)sulphanyl]-1,3-benzothiazol-2-yl}cyclopropanecarboxamide]	> 6.00	> 7.00	> 7.00	> 264 °C
O=C(Nc1nc2ccc(Sc3cnc4ncccn34)cc2s1)C1CC1CN1CCOCC1 (stereo not drawn) [Example 14, (trans-B)-N-[6-(imidazo[1,2-a]pyrimidin-3-ylsulphanyl)-1,3-benzothiazol-2-yl]-2-(morpholin-4-ylmethyl)cyclopropanecarboxamide]	> 6.00	> 7.00		
CN1CCN(CC(=O)Nc2nc3ccc(Sc4cnc5ncccn45)cc3s2)CC1 [Example 10, N-[6-(imidazo[1,2-a]pyrimidin-3-ylsulphanyl)-1,3-benzothiazol-2-yl]-2-(4-methylpiperazin-1-yl)acetamide]	> 6.00	> 7.00	> 7.00	
CN1CCN(CC(=O)Nc2nc3ccc(Sc4cnc5ncccn45)cc3s2)CC1=O [Example 21, N-[6-(imidazo[1,2-a]pyrimidin-3-ylsulphanyl)-1,3-benzothiazol-2-yl]-2-(4-methyl-3-oxopiperazin-1-yl)acetamide]	> 6.00	> 7.00	> 7.00	
